Assay results taken from patent US10532995B2, “Substituted pyrazole compounds as serine protease inhibitors” (VERSEON CORPORATION, priority 2015, dated 2020).

Target: T1, Human thrombin (Homo sapiens, UniProt P00734)
T1 construct: purchased Haematologic Technologies Inc
Experiment: Thrombin protease activity inhibition, chromogenic substrate S-2238
Format: biochemical
Settings: 3 nM thrombin, 125 μM S-2238, 10 min pre-incubation, RT
Procedure: The thrombin activity reported herein (e.g., Table A) was obtained as follows. […] Thrombin was assayed in buffer containing 0.05 M Tris (pH 7.4), 0.015 M NaCl and 0.01% PEG-8000. The final concentration of enzyme used was 3 nM thrombin. […] All assays were performed in 96-well microtiter plates at room temperature (RT). […] Inhibitor IC50 values were determined by adding test compound as ten point, three-fold serial dilutions in buffer solution, as known in the art. The plate was read at 10 minutes after substrate addition. The IC50 was calculated by plotting the percent (%) inhibition against compound concentration and fitting the data to a constrained four parameter sigmoidal curve, as known in the art.

**Q.** `C=CCOC(=O)N1CCC(c2n[nH]c(NCc3ccc(Cl)s3)c2C#N)CC1` [Entry 268, prop-2-en-1-yl 4-(5-[(5-chlorothiophen-2-yl)methyl]amino-4-cyano-1H-pyrazol-3-yl)piperidine-1-carboxylate] was tested. Which IC50 did it give?
**A.** Its IC50 is 1000 to 10000 nM.

**Q.** With `O=C(c1ccsc1)n1nc(C2CCCO2)cc1NCc1ccc(Cl)s1` (stereo not shown) [Entry 183, N-[(5-chlorothiophen-2-yl)methyl]-3-(oxolan-2-yl)-1-(thiophene-3-carbonyl)-1H-pyrazol-5-amine] as the molecule, how does the IC50 read?
**A.** The IC50 was < 100 nM.

**Q.** How did the IC50 turn out when `CC(C)(CO)C(=O)n1nc(C2(C)CCCNC2=O)cc1NCc1ccc(Cl)s1` (stereo not shown) [Entry 119, 3-(5-[(5-chlorothiophen-2-yl)methyl]amino-1-(3-hydroxy-2,2-dimethylpropanoyl)-1H-pyrazol-3-yl)-3-methylpiperidin-2-one] was run?
**A.** The IC50 was 100 to 1000 nM.

**Q.** For `COCC(C)(C)C(=O)n1nc(C2(C)CCCNC2=O)cc1NCc1ccc(Cl)s1` (stereo not shown) [Entry 120, 3-(5-[(5-chlorothiophen-2-yl)methyl]amino-1-(3-methoxy-2,2-dimethylpropanoyl)-1H-pyrazol-3-yl)-3-methylpiperidin-2-one], which IC50 is on record?
**A.** The IC50 was 1000 to 10000 nM.

**Q.** How did the IC50 turn out when `COCC(C)(C)C(=O)n1nc(C2CCCN(C(=O)OC(C)(C)C)C2)cc1NCc1ccc(Cl)s1` (stereo not shown) [Entry 285, tert-butyl 3-(5-[(5-chlorothiophen-2-yl)methyl]amino-1-(3-methoxy-2,2-dimethylpropanoyl)-1H-pyrazol-3-yl)piperidine-1-carboxylate] was run?
**A.** Its IC50 is < 100 nM.

**Q.** `O=C(c1ccoc1)n1nc(C2CCCN2)cc1NCc1ccc(Cl)s1` (stereo not shown) [Entry 167, N-[(5-chlorothiophen-2-yl)methyl]-1-(furan-3-carbonyl)-3-(pyrrolidin-2-yl)-1H-pyrazol-5-amine] was tested. Which IC50 did it give?
**A.** Its IC50 is < 100 nM.

**Q.** Which IC50 does the source give for `Clc1ccc(CNc2cc(C3CCN(Cc4cnn[nH]4)CC3)n[nH]2)s1` [Entry 196, N-[(5-chlorothiophen-2-yl)methyl]-3-[1-(1H-1,2,3-triazol-5-ylmethyl)piperidin-4-yl]-1H-pyrazol-5-amine] here?
**A.** Its IC50 is > 100000 nM.

**Q.** `CC1(c2cc(NCc3ccc(Cl)s3)n(C(=O)c3ccsc3)n2)CCNCC1` [Entry 180, N-[(5-chlorothiophen-2-yl)methyl]-3-(4-methylpiperidin-4-yl)-1-(thiophene-3-carbonyl)-1H-pyrazol-5-amine] was tested. Which IC50 did it give?
**A.** Its IC50 is 1000 to 10000 nM.

**Q.** Which IC50 does the source give for `CN(C)C(=O)N1CCC(c2cc(NCc3ccc(Cl)s3)[nH]n2)CC1` [Entry 137, 4-(5-[(5-chlorothiophen-2-yl)methyl]amino-1H-pyrazol-3-yl)-N,N-dimethylpiperidine-1-carboxamide] here?
**A.** The IC50 was > 100000 nM.

**Q.** For `CC(C)(C)C(=O)n1nc(C2(C)CCCNC2=O)cc1NCc1ccc(Cl)s1` (stereo not shown) [Entry 115, 3-(5-[(5-chlorothiophen-2-yl)methyl]amino-1-(2,2-dimethylpropanoyl)-1H-pyrazol-3-yl)-3-methylpiperidin-2-one], which IC50 is on record?
**A.** The IC50 was 100 to 1000 nM.

**Q.** `CC(C)(C)OC(=O)N1CCCC1c1cc(NCc2ccc(Cl)s2)[nH]n1` (stereo not shown) [Entry 277, tert-butyl 2-(5-[(5-chlorothiophen-2-yl)methyl]amino-1H-pyrazol-3-yl)pyrrolidine-1-carboxylate] was tested. Which IC50 did it give?
**A.** Its IC50 is > 100000 nM.

**Q.** For `C=CCOC(=O)N1CC(c2cc(NCc3ccc(Cl)s3)n(C(=O)C(C)(C)C)n2)C1` [Entry 255, prop-2-en-1-yl 3-(5-[(5-chlorothiophen-2-yl)methyl]amino-1-(2,2-dimethylpropanoyl)-1H-pyrazol-3-yl)azetidine-1-carboxylate], which IC50 is on record?
**A.** The IC50 was < 100 nM.

**Q.** `O=C(N1CCOCC1)N1CCC(c2cc(NCc3ccc(Cl)s3)n(C(=O)N3CCOCC3)n2)CC1` [Entry 168, N-[(5-chlorothiophen-2-yl)methyl]-1-(morpholine-4-carbonyl)-3-[1-(morpholine-4-carbonyl)piperidin-4-yl]-1H-pyrazol-5-amine] was tested. Which IC50 did it give?
**A.** The IC50 was 1000 to 10000 nM.

**Q.** For `Clc1ccc(CNc2cc(C3CCN(Cc4nnn[nH]4)CC3)n[nH]2)s1` [Entry 195, N-[(5-chlorothiophen-2-yl)methyl]-3-[1-(1H-1,2,3,4-tetrazol-5-ylmethyl)piperidin-4-yl]-1H-pyrazol-5-amine], which IC50 is on record?
**A.** The IC50 was 1000 to 10000 nM.

**Q.** For `CC(C)(C)OC(=O)N1CCCC(c2cc(NCc3ccc(Cl)s3)[nH]n2)C1` (stereo not shown) [Entry 290, tert-butyl 3-(5-[(5-chlorothiophen-2-yl)methyl]amino-1H-pyrazol-3-yl)piperidine-1-carboxylate], which IC50 is on record?
**A.** Its IC50 is > 100000 nM.

**Q.** `CC(C)(C)OC(=O)N1CCC(C)(c2cc(NCc3ccc(Cl)s3)n(C(=O)C(C)(C)C)n2)CC1` [Entry 291, tert-butyl 4-(5-[(5-chlorothiophen-2-yl)methyl]amino-1-(2,2-dimethylpropanoyl)-1H-pyrazol-3-yl)-4-methylpiperidine-1-carboxylate] was tested. Which IC50 did it give?
**A.** The IC50 was < 100 nM.

**Q.** How did the IC50 turn out when `O=C(N1CCOCC1)N1CCC(c2cc(NCc3ccc(Cl)s3)[nH]n2)CC1` [Entry 203, N-[(5-chlorothiophen-2-yl)methyl]-3-[1-(morpholine-4-carbonyl)piperidin-4-yl]-1H-pyrazol-5-amine] was run?
**A.** The IC50 was > 100000 nM.

**Q.** For `Cc1c(C2CCNCC2)nn(C(=O)C(C)(C)C)c1NCc1ccc(Cl)s1` [Entry 89, 1-(5-[(5-chlorothiophen-2-yl)methyl]amino-4-methyl-3-(piperidin-4-yl)-1H-pyrazol-1-yl)-2,2-dimethylpropan-1-one; formic acid], which IC50 is on record?
**A.** Its IC50 is 1000 to 10000 nM.

**Q.** For `CC(C)(C)OC(=O)N1CCCC(C)(c2cc(NCc3ccc(Cl)s3)n(C(=O)c3ccsc3)n2)C1` (stereo not shown) [Entry 288, tert-butyl 3-(5-[(5-chlorothiophen-2-yl)methyl]amino-1-(thiophene-3-carbonyl)-1H-pyrazol-3-yl)-3-methylpiperidine-1-carboxylate], which IC50 is on record?
**A.** The IC50 was < 100 nM.

**Q.** For `CC(C)(C)C(=O)n1nc(C2CCN(C(=O)N3CCOCC3)CC2)c(C#N)c1NCc1ccc(Cl)s1` [Entry 140, 5-[(5-chlorothiophen-2-yl)methyl]amino-1-(2,2-dimethylpropanoyl)-3-[1-(morpholine-4-carbonyl)piperidin-4-yl]-1H-pyrazole-4-carbonitrile], which IC50 is on record?
**A.** Its IC50 is < 100 nM.

**Q.** Which IC50 does the source give for `C=CCOC(=O)N1CCC(c2n[nH]c(NCc3ccc(Cl)s3)c2C)CC1` [Entry 271, prop-2-en-1-yl 4-(5-[(5-chlorothiophen-2-yl)methyl]amino-4-methyl-1H-pyrazol-3-yl)piperidine-1-carboxylate] here?
**A.** Its IC50 is > 100000 nM.

**Q.** Which IC50 does the source give for `COc1ccccc1C(=O)n1nc(C2CCN(C(=O)OC(C)(C)C)CC2)cc1NCc1ccc(Cl)s1` [Entry 295, tert-butyl 4-(5-[(5-chlorothiophen-2-yl)methyl]amino-1-(2-methoxybenzoyl)-1H-pyrazol-3-yl)piperidine-1-carboxylate] here?
**A.** Its IC50 is < 100 nM.

**Q.** With `C=CCOC(=O)N1CCCC(c2cc(NCc3ccc(Cl)s3)n(C(=O)c3cscn3)n2)CC1` (stereo not shown) [Entry 260, prop-2-en-1-yl 4-(5-[(5-chlorothiophen-2-yl)methyl]amino-1-(1,3-thiazole-4-carbonyl)-1H-pyrazol-3-yl)azepane-1-carboxylate] as the molecule, how does the IC50 read?
**A.** The IC50 was < 100 nM.

**Q.** For `COc1ccccc1C(=O)n1nc(C2CCCN2C(=O)OC(C)(C)C)cc1NCc1ccc(Cl)s1` (stereo not shown) [Entry 273, tert-butyl 2-(5-[(5-chlorothiophen-2-yl)methyl]amino-1-(2-methoxybenzoyl)-1H-pyrazol-3-yl)pyrrolidine-1-carboxylate], which IC50 is on record?
**A.** Its IC50 is 1000 to 10000 nM.

**Q.** For `FC(F)(F)CN1CCC(c2cc(NCc3ccc(Cl)s3)[nH]n2)CC1` [Entry 198, N-[(5-chlorothiophen-2-yl)methyl]-3-[1-(2,2,2-trifluoroethyl)piperidin-4-yl]-1H-pyrazol-5-amine], which IC50 is on record?
**A.** Its IC50 is > 100000 nM.
